From paper PMC9382030, “A mechanism for exocyst-mediated tethering via Arf6 and PIP5K1C-driven phosphoinositide conversion” (Current biology : CB, 2022)
pKd: −log10 of the molar value.

Legend:
Experiment in all cases: membrane-coated bead recruitment, confocal fluorescence, single-site fit
Type in all cases: binding
Conditions in all cases: apparent affinity in protein concentration; 5 mol% PI(4,5)P2, 85% POPC, 10% phosphatidylserine on silica beads; room temperature, 30 min; 20 mM HEPES, 150 mM NaCl; read-out: KD,relative
[1] = target: T1, exocyst holocomplex (Homo sapiens, UniProt Q9NV70+Q9UPT5)
T1 construct: gene EXOC1; Sf9 baculovirus; hetero-octamer; 6xHis-mNeonGreen-Exoc6 (tag kept), 6xHis-MBP on Exoc5 cut with HRV3C, other subunits untagged; with Exocyst complex component 2; Exocyst complex component 3; Exocyst complex component 4; Exocyst complex component 5; Exocyst complex component 6; Exocyst complex component 8

[2] = target: T2, exocyst subcomplex-1 (Exoc1:2:3:4) (Homo sapiens, UniProt Q9NV70)
T2 construct: Sf9 baculovirus; heterotetramer; 6xHis-mNeonGreen-Exoc4 (tag kept), 6xHis-MBP on Exoc1 cut with HRV3C, Exoc2 and Exoc3 untagged; PH domain of Exoc1 is the known PI(4,5)P2 site; with Exocyst complex component 2; Exocyst complex component 3; Exocyst complex component 4

[3] = target: T3, exocyst subcomplex-2 (Exoc5:6:7:8) (Homo sapiens, UniProt Q9UPT5)
T3 construct: gene EXOC7; Sf9 baculovirus; heterotetramer; with Exocyst complex component 5; Exocyst complex component 6; Exocyst complex component 8
T3 sequence (Q9UPT5 whole entry): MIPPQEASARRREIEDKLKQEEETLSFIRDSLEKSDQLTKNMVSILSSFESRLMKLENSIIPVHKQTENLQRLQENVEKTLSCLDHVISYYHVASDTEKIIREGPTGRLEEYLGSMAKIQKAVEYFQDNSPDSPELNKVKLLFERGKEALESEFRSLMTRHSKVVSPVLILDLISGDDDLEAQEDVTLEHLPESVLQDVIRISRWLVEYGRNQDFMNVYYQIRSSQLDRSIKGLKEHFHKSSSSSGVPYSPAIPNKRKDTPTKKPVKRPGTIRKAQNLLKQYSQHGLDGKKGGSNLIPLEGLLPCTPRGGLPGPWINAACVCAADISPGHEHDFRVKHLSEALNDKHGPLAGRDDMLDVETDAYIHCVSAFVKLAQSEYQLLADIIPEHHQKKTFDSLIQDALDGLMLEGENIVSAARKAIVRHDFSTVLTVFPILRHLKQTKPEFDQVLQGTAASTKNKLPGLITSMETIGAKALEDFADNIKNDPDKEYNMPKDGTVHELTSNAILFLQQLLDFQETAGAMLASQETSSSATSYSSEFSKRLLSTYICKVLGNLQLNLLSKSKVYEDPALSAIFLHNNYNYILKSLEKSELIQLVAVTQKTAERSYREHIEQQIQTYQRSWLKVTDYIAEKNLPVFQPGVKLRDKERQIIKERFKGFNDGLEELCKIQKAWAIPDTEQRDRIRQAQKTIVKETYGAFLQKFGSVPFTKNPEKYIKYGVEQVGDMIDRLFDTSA
T3 sequence (O00471 2-708 partner): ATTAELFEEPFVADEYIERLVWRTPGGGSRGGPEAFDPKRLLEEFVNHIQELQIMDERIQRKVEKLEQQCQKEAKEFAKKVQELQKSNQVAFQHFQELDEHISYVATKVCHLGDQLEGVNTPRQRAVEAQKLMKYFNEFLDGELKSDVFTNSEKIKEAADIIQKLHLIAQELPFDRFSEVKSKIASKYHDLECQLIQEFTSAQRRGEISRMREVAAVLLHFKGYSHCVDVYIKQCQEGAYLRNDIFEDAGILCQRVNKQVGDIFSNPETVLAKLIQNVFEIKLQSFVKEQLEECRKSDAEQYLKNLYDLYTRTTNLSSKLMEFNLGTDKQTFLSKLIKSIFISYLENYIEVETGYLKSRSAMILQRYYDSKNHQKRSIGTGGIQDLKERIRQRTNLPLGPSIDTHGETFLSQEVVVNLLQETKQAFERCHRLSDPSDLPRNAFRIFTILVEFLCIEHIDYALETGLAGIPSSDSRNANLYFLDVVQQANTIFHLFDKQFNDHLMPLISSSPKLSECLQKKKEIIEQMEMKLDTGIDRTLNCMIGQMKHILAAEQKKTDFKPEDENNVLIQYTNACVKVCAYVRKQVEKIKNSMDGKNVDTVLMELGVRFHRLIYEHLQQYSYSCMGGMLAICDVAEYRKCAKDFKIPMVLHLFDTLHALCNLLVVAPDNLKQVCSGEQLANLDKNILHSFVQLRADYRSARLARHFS
T3 sequence (Q8TAG9 whole entry partner): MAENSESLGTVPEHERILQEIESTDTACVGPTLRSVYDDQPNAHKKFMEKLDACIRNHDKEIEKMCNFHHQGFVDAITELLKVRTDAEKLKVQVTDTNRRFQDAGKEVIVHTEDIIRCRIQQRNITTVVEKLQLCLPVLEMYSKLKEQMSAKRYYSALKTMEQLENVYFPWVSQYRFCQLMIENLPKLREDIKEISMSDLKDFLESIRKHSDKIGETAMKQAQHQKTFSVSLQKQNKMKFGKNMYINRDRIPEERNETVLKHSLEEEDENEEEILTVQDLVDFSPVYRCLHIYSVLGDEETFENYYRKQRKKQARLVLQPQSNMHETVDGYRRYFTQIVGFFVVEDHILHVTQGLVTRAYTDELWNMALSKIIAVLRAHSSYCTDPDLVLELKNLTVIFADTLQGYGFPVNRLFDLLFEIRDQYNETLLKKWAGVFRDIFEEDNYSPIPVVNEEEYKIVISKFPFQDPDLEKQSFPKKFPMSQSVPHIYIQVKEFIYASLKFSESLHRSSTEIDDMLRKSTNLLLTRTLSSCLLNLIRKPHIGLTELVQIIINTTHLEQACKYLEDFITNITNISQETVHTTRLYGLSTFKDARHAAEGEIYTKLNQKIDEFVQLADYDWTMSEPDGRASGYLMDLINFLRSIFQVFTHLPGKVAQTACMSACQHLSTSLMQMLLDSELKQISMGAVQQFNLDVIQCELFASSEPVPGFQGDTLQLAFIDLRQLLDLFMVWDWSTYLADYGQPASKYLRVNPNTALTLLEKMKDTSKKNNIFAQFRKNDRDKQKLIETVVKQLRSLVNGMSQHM
T3 sequence (Q8IYI6 whole entry partner): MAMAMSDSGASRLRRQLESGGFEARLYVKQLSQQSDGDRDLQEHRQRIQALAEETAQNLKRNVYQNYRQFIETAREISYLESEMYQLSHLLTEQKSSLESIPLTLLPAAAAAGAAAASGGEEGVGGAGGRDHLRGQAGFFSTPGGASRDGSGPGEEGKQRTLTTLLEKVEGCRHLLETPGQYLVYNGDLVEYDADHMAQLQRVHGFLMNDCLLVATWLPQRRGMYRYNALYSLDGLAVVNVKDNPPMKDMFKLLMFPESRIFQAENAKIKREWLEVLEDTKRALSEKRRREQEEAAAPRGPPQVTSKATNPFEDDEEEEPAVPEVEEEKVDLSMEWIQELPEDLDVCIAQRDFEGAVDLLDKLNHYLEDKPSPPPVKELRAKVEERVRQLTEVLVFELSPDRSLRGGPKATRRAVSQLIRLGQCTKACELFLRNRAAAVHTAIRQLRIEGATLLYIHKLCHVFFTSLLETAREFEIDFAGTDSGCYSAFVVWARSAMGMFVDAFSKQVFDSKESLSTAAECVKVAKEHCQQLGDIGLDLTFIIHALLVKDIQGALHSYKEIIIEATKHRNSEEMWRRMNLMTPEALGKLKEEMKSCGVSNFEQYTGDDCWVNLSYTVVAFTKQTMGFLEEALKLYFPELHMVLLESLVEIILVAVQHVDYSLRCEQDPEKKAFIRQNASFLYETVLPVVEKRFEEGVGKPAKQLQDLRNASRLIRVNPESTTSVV

## CCCCCCCCCCCCCCCC(=O)OC[C@H](COP(=O)(O)O[C@@H]1[C@H](O)[C@H](O)[C@@H](OP(=O)(O)O)[C@H](OP(=O)(O)O)[C@H]1O)OC(=O)CCCCCCCCCCCCCCC [PI(4,5)P2]
[1]
  pKd: 7.00
[2]
  pKd: 7.44
[3]
  pKd: 7.41
